pIC50: −log10 of the molar value. Where two headings read alike, the source gives them in different places.

In one test the test system is T1, P. falciparum 3D7.
T1 construct: 3D7
In words: microbe, parasite or virus in culture. Details: species or system P. falciparum in human erythrocytes; asexual blood-stage growth inhibition, synchronized ring-stage parasites, SYBR Green I fluorescence. The note with it: Plasmodium falciparum, 3D7, Erythrocyte, 72 h; initial laboratory strain experiment (Table S1); read-out: P. falciparum asexual blood stage activity (IC50 uM) / 3D7. The protocol: (§1) Compound dose-response assays were performed in flat-bottom 96-well plates. Tightly synchronized ring-stage parasites were adjusted to 1% parasitemia at 1% hematocrit and exposed to a twofold serial dilution of the compounds plated using a Tecan D300e digital dispenser. As controls, the assay plate included untreated parasites and parasites treated with 700 nM DHA only. After 72 h of incubation, parasite growth was measured by lysing the cells with a 2 × lysis buffer containing 10 mM Tris-HCl, 5 mM EDTA, 0.1% (wt/vol) saponin, and 1% (vol/vol) Triton X-100, supplemented with 2 × SYBR Green I (Molecular Probes). Fluorescence was recorded using a FluorStar Omega v5.11 plate reader. IC50 values were determined using GraphPad Prism v9, and statistical significance was assessed with a two-sided Mann-Whitney U test. Each assay was conducted in technical duplicate, with a minimum of three biological replicates, as described in the figure legends. P. falciparum parasites were cultured with fresh human erythrocytes at 3% hematocrit in RPMI 1640 medium (Gibco), supplemented with 0.5% Albumax II (Gibco), 25 mM HEPES (Sigma), 1× GlutaMAX (Gibco), and 25 μg/mL gentamicin (Gibco). The following parasite strains were used: 3D7, Dd2 (MR4, MRA-156, T. Wellems), GB4 (MR4, MRA-925, T. Wellems), UG659 (P. Rosenthal), Cam/PH0212C (R. Fairhurst), and Cam3.II/ PH0306-C (R. Fairhurst). The cultures were maintained under a controlled tri-gas atmosphere of 1% O2, 3% CO2, and 96% N2. Human erythrocytes were ethically sourced from healthy, anonymous donors through the Scottish National Blood Transfusion Service (SNBTS) or the National Health Services Blood and Transplant (NHSBT). The use of red blood cells was with approval from the University of Dundee Schools of Medicine and Life Sciences Research Ethics Committee, and the NHS Cambridgeshire Research Ethics Committee and Wellcome Sanger Institute Human Materials and Data Management Committee. Half-maximal growth inhibition concentrations were determined for the nine query compounds against chloroquine-sensitive (3D7) and multidrug-resistant (Dd2) parasites (Fig. 1B; Table S1). Compounds were further assessed against a panel of geographically diverse parasite strains, including two multidrug-resistant Cambodian isolates (resistant to artemisinin, chloroquine, and pyrimethamine) and strains from Uganda (UG659) and Ghana (GB4). […] However, a reduction in sensitivity to TCMDC-134122 was noted across all strains when compared to Dd2.

Test [1] has as its system T2, Plasmodium falciparum UG654 (UG659 in methods).
T2 construct: UG659
Description: microbe, parasite or virus in culture. Details: species or system P. falciparum in human erythrocytes; asexual blood-stage growth inhibition, synchronized ring-stage parasites, SYBR Green I fluorescence. Particulars: Erythrocyte, 72 h, read-out: P. falciparum asexual blood stage activity (IC50 uM) / UG654 / IC50. The protocol: as §1

In test [2] the test system is T3, Plasmodium falciparum Cam3.II.
T3 construct: Cam3.II
In words: microbe, parasite or virus in culture. Details: species or system P. falciparum in human erythrocytes; asexual blood-stage growth inhibition, synchronized ring-stage parasites, SYBR Green I fluorescence. The note with it: Erythrocyte, 72 h, read-out: P. falciparum asexual blood stage activity (IC50 uM) / Cam3.II / IC50. The method, then: as §1

Test [3] deals with T4, Plasmodium falciparum CAM (PH0212C).
T4 construct: Cam/PH0212C
In words: microbe, parasite or virus in culture. Also on record: species or system P. falciparum in human erythrocytes; asexual blood-stage growth inhibition, synchronized ring-stage parasites, SYBR Green I fluorescence. The note with it: Erythrocyte, 72 h, read-out: P. falciparum asexual blood stage activity (IC50 uM) / CAM (PH0212C) / IC50. The method, then: as §1

The subject of test [4] is T5, Plasmodium falciparum GB4.
T5 construct: GB4
Description: microbe, parasite or virus in culture. Details: species or system P. falciparum in human erythrocytes; asexual blood-stage growth inhibition, synchronized ring-stage parasites, SYBR Green I fluorescence. The note with it: Erythrocyte, 72 h, read-out: P. falciparum asexual blood stage activity (IC50 uM) / GB4 / IC50. The protocol:
as §1

For a further test, the system named is T6, P. falciparum Dd2.
T6 construct: Dd2
In words: microbe, parasite or virus in culture. Also on record: species or system P. falciparum in human erythrocytes; asexual blood-stage growth inhibition, synchronized ring-stage parasites, SYBR Green I fluorescence. Particulars: Plasmodium falciparum, DD2, Erythrocyte, 72 h. The method, then: as §1

Test [5] addresses T7, P. falciparum cytoplasmic isoleucyl-tRNA synthetase (PfcIRS) (Plasmodium falciparum, UniProt Q8IDZ9).
T7 construct: gene PF3D7_1332900; full-length PfcIRS (1-1273), C-terminal TEV-cleavable His10-FLAG tag removed, Sf9 expressed
In words: AMP-Glo enzymatic assay with recombinant PfcIRS. In kind it is biochemical.

[6] abbreviates: initial laboratory strain experiment (Table S1), read-out: P. falciparum asexual blood stage activity (IC50 uM) / Dd2.
[7] abbreviates: strain panel experiment (Table S2), read-out: P. falciparum asexual blood stage activity (IC50 uM) / Dd2 / IC50.

T7 sequence (Q8IDZ9 entry or part of it): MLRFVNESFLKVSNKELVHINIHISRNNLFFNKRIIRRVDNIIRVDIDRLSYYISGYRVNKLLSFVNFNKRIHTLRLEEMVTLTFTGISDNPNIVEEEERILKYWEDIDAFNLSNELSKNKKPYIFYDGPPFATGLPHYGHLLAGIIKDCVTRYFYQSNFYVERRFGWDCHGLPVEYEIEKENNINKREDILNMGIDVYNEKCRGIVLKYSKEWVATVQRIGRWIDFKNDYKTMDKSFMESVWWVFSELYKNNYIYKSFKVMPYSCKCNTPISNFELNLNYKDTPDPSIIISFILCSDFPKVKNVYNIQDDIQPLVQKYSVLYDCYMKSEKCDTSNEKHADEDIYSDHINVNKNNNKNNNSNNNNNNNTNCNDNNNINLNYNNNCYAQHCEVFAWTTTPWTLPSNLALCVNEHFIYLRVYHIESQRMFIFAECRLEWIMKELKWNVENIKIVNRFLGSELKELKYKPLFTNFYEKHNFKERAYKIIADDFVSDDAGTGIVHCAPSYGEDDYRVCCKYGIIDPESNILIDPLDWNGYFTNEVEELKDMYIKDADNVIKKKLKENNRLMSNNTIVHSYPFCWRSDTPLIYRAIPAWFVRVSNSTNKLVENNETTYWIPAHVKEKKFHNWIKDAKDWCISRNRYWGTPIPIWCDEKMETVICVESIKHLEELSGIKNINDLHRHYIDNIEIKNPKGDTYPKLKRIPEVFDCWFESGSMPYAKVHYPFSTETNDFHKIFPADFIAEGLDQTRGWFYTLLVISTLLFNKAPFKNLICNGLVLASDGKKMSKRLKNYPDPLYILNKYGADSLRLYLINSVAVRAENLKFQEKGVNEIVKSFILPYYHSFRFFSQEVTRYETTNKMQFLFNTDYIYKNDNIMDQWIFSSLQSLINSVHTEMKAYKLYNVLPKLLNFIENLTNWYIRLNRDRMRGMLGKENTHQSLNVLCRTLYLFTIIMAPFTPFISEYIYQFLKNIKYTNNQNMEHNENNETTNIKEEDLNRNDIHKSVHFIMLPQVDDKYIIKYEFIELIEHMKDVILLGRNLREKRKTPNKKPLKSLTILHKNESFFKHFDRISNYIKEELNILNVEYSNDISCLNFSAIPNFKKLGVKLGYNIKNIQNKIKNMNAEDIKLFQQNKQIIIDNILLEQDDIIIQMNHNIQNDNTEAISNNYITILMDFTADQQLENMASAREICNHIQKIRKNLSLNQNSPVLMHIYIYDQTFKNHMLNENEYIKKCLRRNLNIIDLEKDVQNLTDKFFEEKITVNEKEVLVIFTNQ

One may read the pIC50 as the negative decadic logarithm of the IC50, by convention in mol/L. Take `c1ccn2c(Sc3ncnc4sccc34)ncc2c1` [TCMDC-124602]: the IC50 with P. falciparum 3D7 was 0.502 µM; in test [1], 0.354 µM; in test [2] it was 0.316 µM; in test [3], 0.313 µM; in test [4], 0.651 µM; in the test on P. falciparum Dd2 (setting [6]), 0.45 µM. Moreover, the IC50 with P. falciparum Dd2 (setting [7]) worked out at 0.288 µM. The pIC50 in test [5] was 5.18.

`CCOc1ccc2nc(NC(=O)c3csnn3)sc2c1` [TCMDC-125075]: the IC50 in the test with P. falciparum 3D7 stood at 0.144 µM; in test [1], 0.178 µM; in test [2] it was 0.115 µM; in test [3] it was 0.195 µM; in test [4] it was 0.16 µM; in the test on P. falciparum Dd2 (setting [6]) it was 0.206 µM. In the test with P. falciparum Dd2 (setting [7]), the IC50 stood at 0.192 µM.

As to `Cc1cccc2[nH]c(-c3cccc(-c4cccc(NC(=O)CCc5c[nH]cn5)c4)c3)nc12` [TCMDC-132158], the IC50 stood at 0.616 µM with P. falciparum 3D7; 1.82 µM in test [1]; 0.757 µM in test [2]; 0.654 µM in test [3]; 1.72 µM in test [4]; 0.609 µM in the test on P. falciparum Dd2 (setting [6]). In addition, the IC50 with P. falciparum Dd2 (setting [7]) came to 0.932 µM.

Regarding `Cc1cccc(C)c1CNc1cccc(-c2nc(C)c(C)[nH]2)c1` [TCMDC-133434], the IC50 with P. falciparum 3D7 was 0.89 µM; in test [1], 1.22 µM; in test [2], 1.21 µM; in test [3], 1.33 µM; in test [4], 0.924 µM; in the test with P. falciparum Dd2 (setting [6]), 0.851 µM. Also, the IC50 with P. falciparum Dd2 (setting [7]) was 1.74 µM.

Consider `COc1ccc(-n2ncc(C(=O)N3CCC4(C3)C(=O)N(c3ccccc3)c3ccccc34)c2C)cc1` (stereo not shown) [TCMDC-134122], for which the IC50 was found to be 0.572 µM in the test with P. falciparum 3D7; 1.17 µM in test [1]; 1.78 µM in test [2]; 1.25 µM in test [3]; 1.67 µM in test [4]; 0.216 µM in the test with P. falciparum Dd2 (setting [6]). The IC50 with P. falciparum Dd2 (setting [7]) came to 0.394 µM.

Regarding `Cc1cccc2[nH]c(-c3ccc(-c4cccc(NC(=O)C(C)CN5CCN(C)CC5)c4)cc3)nc12` (stereo not shown) [TCMDC-137144], the IC50 in the test with P. falciparum 3D7 amounted to 0.912 µM; in test [1], 2.18 µM; in test [2] it was 1.39 µM; in test [3], 1.2 µM; in test [4], 1.94 µM; in the test on P. falciparum Dd2 (setting [6]), 1.4 µM. Further, the IC50 in the test with P. falciparum Dd2 (setting [7]) is 1.39 µM.

Consider `COc1cc(-c2[nH]c(C(C)(C)CN)nc2-c2ccncc2)ccc1Br` [TCMDC-140674], for which the IC50 is 0.688 µM in the test with P. falciparum 3D7; 1.07 µM in test [1]; 0.532 µM in test [2]; 0.501 µM in test [3]; 1.85 µM in test [4]; 0.244 µM with P. falciparum Dd2 (setting [6]). Further, the IC50 in the test on P. falciparum Dd2 (setting [7]) is 0.341 µM.

`CC(C)(CN)c1cc(-c2ccc(Cl)c(O)c2)c(-c2ccncc2)o1` [TCMDC-141334]: the IC50 with P. falciparum 3D7 came to 0.446 µM; in test [1] it was 0.537 µM; in test [2] it was 0.644 µM; in test [3], 0.676 µM; in test [4], 0.974 µM; with P. falciparum Dd2 (setting [6]), 0.414 µM. In the test on P. falciparum Dd2 (setting [7]), the IC50 amounted to 0.485 µM.

`CC(C)(C)c1cc(Cl)cc(C(=O)Nc2cc([N+](=O)[O-])ccc2Cl)c1O` [TCMDC-142214]: the IC50 in the test with P. falciparum 3D7 stood at 3.65 µM; in test [1], 3.07 µM; in test [2], 2.78 µM; in test [3], 3.8 µM; in test [4], 3.08 µM; in the test with P. falciparum Dd2 (setting [6]) it was 3.17 µM. Further, the IC50 in the test on P. falciparum Dd2 (setting [7]) was 2.88 µM.

Source of the values: article PMC12802172, “Mechanistic insights into dual-active liver and blood-stage antiplasmodials” (mBio, 2025).
